Results published in ChEMBL document CHEMBL1909046, “DrugMatrix in vitro pharmacology data”.

Key:
[1] = DRUGMATRIX: ATPase, Na+/K+ enzyme inhibition (substrate: ATP); type: tissue-based, Sus scrofa, Heart; details: Not Active = under 50% inhibition at 10 µM
B2 bradykinin receptor = molecular target: T1, B2 bradykinin receptor (Homo sapiens, UniProt P30411); type: cell membranes, Membrane; details: chem-1; also: in other assays of this panel Not Active means under 50% inhibition at 10 µM
T1 sequence (P30411 whole entry): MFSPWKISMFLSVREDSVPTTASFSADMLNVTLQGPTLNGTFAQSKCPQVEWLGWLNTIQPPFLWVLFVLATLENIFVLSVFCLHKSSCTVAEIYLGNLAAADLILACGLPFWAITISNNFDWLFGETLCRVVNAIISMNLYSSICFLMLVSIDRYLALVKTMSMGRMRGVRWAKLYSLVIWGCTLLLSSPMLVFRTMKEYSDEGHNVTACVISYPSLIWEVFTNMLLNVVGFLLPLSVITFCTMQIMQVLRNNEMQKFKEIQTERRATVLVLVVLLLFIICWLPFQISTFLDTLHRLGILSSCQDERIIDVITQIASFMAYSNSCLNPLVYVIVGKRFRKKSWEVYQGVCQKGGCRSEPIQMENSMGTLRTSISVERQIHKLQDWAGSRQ

Thromboxane-A synthase = molecular target: T2, Thromboxane-A synthase (Homo sapiens, UniProt P24557); experiment: biochemical; type: tissue-based, Platelet; details: platelet;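 also: enzyme inhibition assay with PGH2 supplied as substrate; in other assays of this panel Not Active means under 50% inhibition at 10 µM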
T2 sequence (P24557 whole entry): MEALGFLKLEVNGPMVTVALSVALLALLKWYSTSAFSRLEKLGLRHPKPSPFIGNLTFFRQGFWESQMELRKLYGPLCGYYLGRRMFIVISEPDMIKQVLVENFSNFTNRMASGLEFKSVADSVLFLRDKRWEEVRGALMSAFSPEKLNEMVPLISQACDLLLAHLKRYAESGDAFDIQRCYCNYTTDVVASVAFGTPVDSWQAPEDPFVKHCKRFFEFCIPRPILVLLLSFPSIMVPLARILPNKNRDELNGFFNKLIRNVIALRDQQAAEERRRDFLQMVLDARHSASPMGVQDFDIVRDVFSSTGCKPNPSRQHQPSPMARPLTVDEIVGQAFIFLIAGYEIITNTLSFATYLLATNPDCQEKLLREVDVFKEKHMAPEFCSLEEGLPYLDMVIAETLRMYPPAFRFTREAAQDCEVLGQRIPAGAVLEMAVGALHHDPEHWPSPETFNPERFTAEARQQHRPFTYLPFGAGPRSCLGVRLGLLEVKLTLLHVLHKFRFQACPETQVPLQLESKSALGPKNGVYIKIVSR

[2] = molecular target: Kappa-type opioid receptor (Homo sapiens, UniProt P41145); experiment: DRUGMATRIX: Opiate kappa (OP2, KOP) radioligand binding (ligand: [3H] Diprenorphine); type: cell membranes, HEK293, Membrane; details: hek293; Not Active = under 50% inhibition at 10 µM
Cathepsin G = molecular target: T3, Cathepsin G (Homo sapiens, UniProt P08311); type: tissue-based; details: neutrophil;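 also: inhibition of Cathepsin G enzyme activity, tested on an AMC-conjugated peptide substrate; in other assays of this panel Not Active means under 50% inhibition at 10 µM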
T3 sequence (P08311 whole entry): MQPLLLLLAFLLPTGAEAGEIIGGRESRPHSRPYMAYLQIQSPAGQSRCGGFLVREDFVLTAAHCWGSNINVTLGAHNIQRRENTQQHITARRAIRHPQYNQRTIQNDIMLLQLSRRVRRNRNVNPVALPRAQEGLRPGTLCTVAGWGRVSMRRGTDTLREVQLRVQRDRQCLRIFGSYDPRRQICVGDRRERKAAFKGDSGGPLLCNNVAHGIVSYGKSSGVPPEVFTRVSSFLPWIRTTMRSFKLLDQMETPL

[3] = molecular target: T4, Receptor-type tyrosine-protein phosphatase C (Homo sapiens, UniProt P08575); set-up: species or system Escherichia coli;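 also: inhibition of CD45 enzyme activity measured using DiFMUP as substrate; in other assays of this panel Not Active means under 50% inhibition at 10 µM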
T4 sequence (P08575 whole entry): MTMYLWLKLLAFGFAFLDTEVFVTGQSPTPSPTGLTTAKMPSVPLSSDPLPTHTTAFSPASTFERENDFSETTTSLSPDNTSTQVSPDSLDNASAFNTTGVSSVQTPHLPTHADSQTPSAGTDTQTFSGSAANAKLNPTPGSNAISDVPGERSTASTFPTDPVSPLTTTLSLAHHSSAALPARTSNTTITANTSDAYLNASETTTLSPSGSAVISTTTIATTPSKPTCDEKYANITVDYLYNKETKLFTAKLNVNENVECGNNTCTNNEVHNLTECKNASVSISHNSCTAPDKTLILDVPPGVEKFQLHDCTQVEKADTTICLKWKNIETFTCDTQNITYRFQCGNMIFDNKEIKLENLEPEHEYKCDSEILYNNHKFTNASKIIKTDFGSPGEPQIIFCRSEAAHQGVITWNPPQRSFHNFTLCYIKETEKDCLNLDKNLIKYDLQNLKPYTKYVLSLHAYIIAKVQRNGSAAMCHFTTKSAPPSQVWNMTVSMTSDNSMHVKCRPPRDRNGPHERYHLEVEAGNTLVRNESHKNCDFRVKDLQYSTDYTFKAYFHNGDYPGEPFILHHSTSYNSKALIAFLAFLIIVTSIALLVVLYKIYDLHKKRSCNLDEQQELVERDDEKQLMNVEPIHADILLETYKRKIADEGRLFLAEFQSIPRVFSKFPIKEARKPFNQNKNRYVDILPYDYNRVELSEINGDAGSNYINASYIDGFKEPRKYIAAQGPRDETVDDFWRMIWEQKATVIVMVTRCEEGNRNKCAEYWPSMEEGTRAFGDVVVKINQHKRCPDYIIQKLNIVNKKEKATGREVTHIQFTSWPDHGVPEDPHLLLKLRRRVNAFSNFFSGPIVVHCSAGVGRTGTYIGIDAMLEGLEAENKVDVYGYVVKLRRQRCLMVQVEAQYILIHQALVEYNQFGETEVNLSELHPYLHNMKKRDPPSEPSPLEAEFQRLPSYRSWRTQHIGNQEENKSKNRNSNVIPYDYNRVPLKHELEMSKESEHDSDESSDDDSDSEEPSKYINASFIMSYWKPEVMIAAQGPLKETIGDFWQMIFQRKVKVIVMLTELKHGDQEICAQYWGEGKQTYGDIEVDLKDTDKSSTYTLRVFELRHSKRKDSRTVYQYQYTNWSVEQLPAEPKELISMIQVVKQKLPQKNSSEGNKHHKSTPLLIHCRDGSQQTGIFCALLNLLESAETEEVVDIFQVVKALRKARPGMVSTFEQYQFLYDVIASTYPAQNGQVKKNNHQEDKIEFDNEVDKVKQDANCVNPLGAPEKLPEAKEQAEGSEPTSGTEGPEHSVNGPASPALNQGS

Kappa-type opioid receptor, sequence (P41145 whole entry): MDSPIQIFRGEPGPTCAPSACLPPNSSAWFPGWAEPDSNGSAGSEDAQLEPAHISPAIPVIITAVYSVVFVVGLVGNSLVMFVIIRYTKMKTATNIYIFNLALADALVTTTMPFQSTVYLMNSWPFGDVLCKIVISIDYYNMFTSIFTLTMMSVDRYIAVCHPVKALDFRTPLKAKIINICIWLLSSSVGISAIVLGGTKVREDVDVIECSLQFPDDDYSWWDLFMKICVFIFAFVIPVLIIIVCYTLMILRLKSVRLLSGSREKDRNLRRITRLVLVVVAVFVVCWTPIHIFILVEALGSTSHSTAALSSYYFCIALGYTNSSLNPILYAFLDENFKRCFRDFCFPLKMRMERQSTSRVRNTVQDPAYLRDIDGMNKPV

SMILES	IC50 [1]	Ki [1]	IC50 (B2 bradykinin receptor)	IC50 (Thromboxane-A synthase)	IC50 [2]	IC50 (Cathepsin G)	IC50 [3]	IC50 ([1]; read-out: IC50) [nM]
CC1=C(C(=O)O)N2C(=O)[C@@H](NC(=O)[C@H](N)c3ccccc3)[C@H]2SC1 [CEPHALEXIN ANHYDROUS]	Not Active	Not Active	Not Active	Not Active	Not Active	Not Active	Not Active	
O=C(N[C@H](CO)[C@H](O)c1ccc([N+](=O)[O-])cc1)C(Cl)Cl [CHLORAMPHENICOL]	Not Active	Not Active	Not Active	Not Active	Not Active	Not Active	Not Active	
ClC(Cl)Cl [CHLOROFORM]	Not Active	Not Active	Not Active	Not Active	Not Active	Not Active	Not Active	
C=C1CC[C@H](O)C/C1=C/C=C1\CCC[C@]2(C)[C@@H]([C@H](C)CCCC(C)C)CC[C@@H]12 [CHOLECALCIFEROL]	Not Active	Not Active	Not Active	Not Active	Not Active	Not Active	Not Active	
C[N+](C)(C)CCO.[Cl-] [CHOLINE CHLORIDE]	Not Active	Not Active	Not Active	Not Active	Not Active	Not Active	Not Active	
CCOC(=O)C(C)(C)Oc1ccc(Cl)cc1 [CLOFIBRATE]	Not Active	Not Active	Not Active	Not Active	Not Active	Not Active	Not Active	
CC(=O)OCC(=O)[C@@]1(O)CC[C@H]2[C@@H]3CCC4=CC(=O)CC[C@]4(C)[C@H]3C(=O)C[C@@]21C [CORTISONE ACETATE]	Not Active	Not Active	Not Active	Not Active	Not Active	Not Active	Not Active	
O=c1ccc2ccccc2o1 [COUMARIN]	Not Active	Not Active	Not Active	Not Active	Not Active	Not Active	Not Active	
C/C=C/C[C@@H](C)[C@@H](O)[C@H]1C(=O)N[C@@H](CC)C(=O)N(C)CC(=O)N(C)[C@@H](CC(C)C)C(=O)N[C@@H](C(C)C)C(=O)N(C)[C@@H](CC(C)C)C(=O)N[C@@H](C)C(=O)N[C@H](C)C(=O)N(C)[C@@H](CC(C)C)C(=O)N(C)[C@@H](CC(C)C)C(=O)N(C)[C@@H](C(C)C)C(=O)N1C [CYCLOSPORINE]	Not Active	Not Active	Not Active	Not Active	Not Active	Not Active	Not Active	
CN(C)/N=N/c1[nH]cnc1C(N)=O [DACARBAZINE]	Not Active	Not Active	Not Active	Not Active	Not Active	Not Active	Not Active	
COc1ccc2c(c1)[C@]13CCCC[C@@H]1[C@H](C2)N(C)CC3 [DEXTROMETHORPHAN]	Not Active	Not Active	Not Active	Not Active	Not Active	Not Active	Not Active	
CC(=O)Nc1c(I)c(NC(C)=O)c(I)c(C(=O)O)c1I [DIATRIZOIC ACID]	Not Active	Not Active	Not Active	Not Active	Not Active	Not Active	Not Active	
O=C(O)Cc1ccccc1Nc1c(Cl)cccc1Cl [DICLOFENAC]	Not Active	Not Active	Not Active	Not Active	Not Active	Not Active	Not Active	
C[C@H]1O[C@@H](O[C@H]2[C@@H](O)C[C@H](O[C@H]3[C@@H](O)C[C@H](O[C@H]4CC[C@@]5(C)[C@H](CC[C@@H]6[C@@H]5CC[C@]5(C)[C@@H](C7=CC(=O)OC7)CC[C@]65O)C4)O[C@@H]3C)O[C@@H]2C)C[C@H](O)[C@@H]1O [DIGITOXIN]			Not Active	Not Active	Not Active	Not Active	Not Active	225
CCN1CC(CCN2CCOCC2)C(c2ccccc2)(c2ccccc2)C1=O (centres undefined) [DOXAPRAM]	Not Active	Not Active	Not Active	Not Active	Not Active	Not Active	Not Active	
Cn1c(=O)c2c(ncn2CC2OCCO2)n(C)c1=O [DOXOFYLLINE]	Not Active	Not Active	Not Active	Not Active	Not Active	Not Active	Not Active	
COc1cccc2c1C(=O)c1c(O)c3c(c(O)c1C2=O)C[C@@](O)(C(=O)CO)C[C@@H]3O[C@H]1C[C@H](N)[C@H](O)[C@H](C)O1 [DOXORUBICIN]	Not Active	Not Active	Not Active	Not Active	Not Active	Not Active	Not Active	
COc1cccc2c1C(=O)c1c(O)c3c(c(O)c1C2=O)C[C@@](O)(C(=O)CO)C[C@@H]3O[C@H]1C[C@H](N)[C@@H](O)[C@H](C)O1 [EPIRUBICIN]	Not Active	Not Active	Not Active	Not Active	Not Active	Not Active	Not Active	
C[C@]12CC[C@@H]3c4ccc(OC(=O)c5ccccc5)cc4CC[C@H]3[C@@H]1CC[C@@H]2O [ESTRADIOL BENZOATE]	Not Active	Not Active	Not Active	Not Active	Not Active	Not Active	Not Active	
C[C@]12CC[C@@H]3c4ccc(O)cc4CC[C@H]3[C@@H]1CC[C@@H]2O [ESTRADIOL]	Not Active	Not Active	Not Active	Not Active	Not Active	Not Active	Not Active	
